Test results from patent publication US9516880B2, “Herbicidal and fungicidal 5-oxy-substituted 3-phenylisoxazoline-5-carboxamides and 5-oxy-substituted 3-phenylisoxazoline-5-thioamides” (BAYER CROPSCIENCE AG, priority 2012, dated 2016).

Legend:
Phytophthora infestans = type: in vivo; details: application rate 500 ppm; protective, tomato plants; evaluation 5 days after infection; 0% = control, 100% = no infection
Botrytis cinerea = assay: In vivo protective test, Botrytis cinerea (gray mold in gherkins); details: application rate 500 ppm, gherkin plants, evaluation 4-5 days after infection, 0% = control, 100% = no infection
Experimental: To produce an appropriate active ingredient formulation, active ingredient is mixed with acetone/Tween/DMSO and diluted with water to the appropriate concentration. Gherkin plants (Vert petit de Paris) are cultivated in 50/50 peat/pozzolan substrate at 24° C. and sprayed at the Z11 stage with the active ingredient formulation specified above. Plants which serve as a control are treated with an aqueous solution without active ingredient. After 24 hours, the plants are sprayed with a spore suspension of Botrytis cinerea (50 000 spores/ml). The spores are suspended in a nutrient solution consisting of 10 g/L PDB, 50 g/L D-Fructose, 2 g/L NH4NO3 and 1 g/L KH2PO4. The inoculated gherkin plants are incubated at 17° C. and at 80% relative air humidity.

Septoria tritici = assay: In vivo protective test, Septoria tritici (blotch in wheat); details: application rate 500 ppm, wheat plants, evaluation 21-28 days after inoculation, 0% = control, 100% = no infection
Experimental: To produce an appropriate active ingredient formulation, active ingredient is mixed with acetone/Tween/DMSO and diluted with water to the appropriate concentration. Wheat plants (cultivar: Scipion) are cultivated in 50/50 peat/pozzolan substrate at 22° C. (12 h)/20° C. (12 h) and sprayed at the 1-leaf stage (height 10 cm) with the active ingredient formulation specified above. Control plants are sprayed with an aqueous solution without added active ingredient. After 24 hours, the plants are sprayed with a spore suspension of cryopreserved Septoria tritici (500 000 spores/ml).

Sphaerotheca fuliginea = assay: In vivo protective test, Sphaerotheca fuliginea (powdery mildew in gherkins); details: application rate 500 ppm, gherkin plants, evaluation 12 days after inoculation, 0% = control, 100% = no infection
Experimental: Example: In vivo protective test, Sphaerotheca fuliginea (powdery mildew in gherkins) To produce an appropriate active ingredient formulation, active ingredient is mixed with acetone/Tween/DMSO and diluted with water to the appropriate concentration. Gherkin plants (cultivar: Vert petit de Paris) are cultivated in 50/50 peat/pozzolan substrate at 24° C. and sprayed at the Z11 cotyledon stage with the active ingredient formulation specified above. Plants which serve as a control are treated with an aqueous solution without active ingredient. After 24 hours, the plants are sprayed with a spore suspension of Sphaerotheca fuliginea (100 000 spores/ml). The spores are collected from infected plants. The inoculated plants are placed at 20/25° C. and at 60/70% relative humidity.

Plasmopara viticola = assay: Plasmopara test (grapevine)/protective; type: in vivo; details: Plasmopara viticola on grapevine, protective, active ingredient concentration 100 ppm, 6 days after inoculation
Experimental: The plants are then moistened and placed in an incubation cabin for 1 day.

Venturia inaequalis = assay: Venturia test (apple)/protective; details: Venturia inaequalis on apple, protective, active ingredient concentration 100 ppm, 10 days after inoculation
Experimental: • Solvents: 24.5 parts by weight of acetone • 24.5 parts by weight of dimethylacetamide • Emulsifier: 1 part by weight of alkylaryl polyglycol ether
To produce an appropriate active ingredient formulation, 1 part by weight of active ingredient is mixed with the stated amounts of solvent and emulsifier, and the concentrate is diluted with water to the desired concentration.
To test for protective efficacy, young plants are sprayed with the active ingredient formulation at the stated application rate. After the spray coating has dried on, the plants are inoculated with an aqueous conidia suspension of the apple scab pathogen Venturia inaequalis and then remain in an incubation cabin at about 20° C. and 100% relative air humidity for 1 day.
The plants are then placed in a greenhouse at about 21° C. and a relative air humidity of about 90%.
Evaluation follows 10 days after the inoculation.

SMILES | Efficacy [%] (Phytophthora infestans) | Efficacy [%] (Botrytis cinerea) | Efficacy [%] (Septoria tritici) | Efficacy [%] (Sphaerotheca fuliginea) | Efficacy [%] (Plasmopara viticola) | Efficacy [%] (Venturia inaequalis)
COCC(C)NC(=O)C1(OC)CC(c2cc(F)cc(F)c2)=NO1 (single isomer, unassigned) [1.11-19 D1] | 100 | 100 | 100 | 100 |  | 
COCC(C)NC(=O)C1(OC)CC(c2cc(Cl)cc(Cl)c2)=NO1 (single isomer, unassigned) [1.20-19 D2] | 100 | 100 | 100 | 100 |  | 
CCn1cc(CNC(=O)C2(OC)CC(c3cccc(Cl)c3)=NO2)cn1 (centres unmarked) [Compound 1.3-206] |  |  | 100 | 94 |  | 
CCOC(=O)CC(C)NC(=O)C1(OC)CC(c2cccc(CC)c2)=NO1 (centres unmarked) [Compound 1.6-96] |  | 95 | 75 |  |  | 
COc1cccc(C2=NOC(OC)(C(=O)NCc3ccc(Cl)nc3)C2)c1 (centres unmarked) [Compound 1.7-110] |  | 100 | 100 |  |  | 
COC1(C(=O)NCc2ccc(Cl)nc2)CC(c2cc(F)cc(F)c2)=NO1 (centres unmarked) [Compound 1.11-110] | 100 | 90 | 100 | 78 |  | 
COC1(C(=O)NCc2nc(C)cc(C)n2)CC(c2cc(F)cc(F)c2)=NO1 (centres unmarked) [Compound 1.11-189] | 100 |  |  |  |  | 
COC1(C(=O)NCc2cccnc2Cl)CC(c2cc(F)cc(F)c2)=NO1 (centres unmarked) [Compound 1.11-238] | 99 | 100 | 100 | 83 |  | 
COC1(C(=O)NCc2ccnc(Cl)c2)CC(c2cc(C)cc(F)c2)=NO1 (centres unmarked) [Compound 1.14-136] |  | 88 |  |  |  | 
CCn1cc(CNC(=O)C2(OC)CC(c3cc(C)cc(F)c3)=NO2)cn1 (centres unmarked) [Compound 1.14-206] | 100 | 100 | 100 | 98 |  | 
CCOC(=O)CCNC(=O)C1(OC)CC(c2cc(F)cc(OC)c2)=NO1 (centres unmarked) [Compound 1.16-94] |  | 75 |  |  |  | 
CCOC(=O)CC(C)NC(=O)C1(OC)CC(c2cc(F)cc(OC)c2)=NO1 (centres unmarked) [Compound 1.16-96] |  | 85 | 88 | 78 |  | 
COc1cc(F)cc(C2=NOC(OC)(C(=O)NCc3ccc(Cl)nc3)C2)c1 (centres unmarked) [Compound 1.16-110] |  | 100 | 100 | 89 |  | 
CCn1cc(CNC(=O)C2(OC)CC(c3cc(F)cc(C(F)(F)F)c3)=NO2)cn1 (centres unmarked) [Compound 1.18-206] | 90 | 100 |  | 95 |  | 
COC1(C(=O)NC(C)C)CC(c2cc(Cl)cc(Cl)c2)=NO1 (centres unmarked) [Compound 1.20-5] |  |  |  |  | 99 | 96
COC1(C(=O)NC2(C#N)CC2)CC(c2cc(Cl)cc(Cl)c2)=NO1 (centres unmarked) [Compound 1.20-64] | 100 | 70 | 100 | 98 |  | 
COC1(C(=O)NCc2ccc(Cl)nc2)CC(c2cc(Cl)cc(Cl)c2)=NO1 (centres unmarked) [Compound 1.20-110] |  | 83 | 100 |  |  | 
COC1(C(=O)NCc2ccncc2)CC(c2cc(Cl)cc(Cl)c2)=NO1 (centres unmarked) [Compound 1.20-135] |  | 100 | 100 | 98 |  | 
C=CCNC(=O)C1(OC)CC(c2cc(Cl)cc(OC(F)(F)F)c2)=NO1 (centres unmarked) [Compound 1.25-16] |  | 100 | 97 | 95 |  | 
COC1(C(N)=O)CC(c2cc(Br)cc(OC(F)(F)F)c2)=NO1 (centres unmarked) [Compound 1.32-1] |  |  | 98 |  |  | 
COC1(C(=O)NC2CC2)CC(c2cc(Br)cc(OC(F)(F)F)c2)=NO1 (centres unmarked) [Compound 1.32-60] |  | 100 | 100 | 100 |  | 
CCn1cc(CNC(=O)C2(OC)CC(c3cc(Br)cc(OC(F)(F)F)c3)=NO2)cn1 (centres unmarked) [Compound 1.32-206] |  | 96 | 100 |  |  | 
COC1(C(=O)NC2CC2)CC(c2cc(Br)cc(C(F)(F)F)c2)=NO1 (centres unmarked) [Compound 1.33-60] |  | 100 | 100 | 100 |  | 
COC(=O)CCCNC(=O)C1(OC)CC(c2cc(Br)cc(C(F)(F)F)c2)=NO1 (centres unmarked) [Compound 1.33-102] |  |  | 100 | 100 |  | 
CCOC1(C(=O)NCc2cnn(CC)c2)CC(c2cc(F)cc(F)c2)=NO1 (centres unmarked) [Compound 2.11-206] | 100 |  | 83 |  |  | 
